Laboratory results published in ChEMBL document CHEMBL6182910, “Design, Synthesis, and Biological Evaluation of 4-(Difluoromethyl)-1H-imidazole-5-carboxylic Acids/4-(3-Cyanophenoxy)pyrimidine-5-carboxylic Acids as P2Y1 Receptor Antagonists for Ischemic Stroke Treatment” (J Med Chem, 2025).
The source made the active and inactive calls. No cut-off for these calls is given here.

Columns and labels:
[1] = Antioxidant activity assessed as DPPH radical scavenging activity at 60 uM incubated for 30 mins under dark condition by absorbance based method; format: functional
HT-22 = experiment: Neuroprotective activity against H2O2-induced oxidative stress in mouse HT-22 cells assessed as increase in nuclear Nrf2 level at 10 uM preincubated for 2 hrs followed by H2O2 addition measured after 16 hrs by Western blot analysis; format: functional, cell-based; settings: time 18.0 hrs
Plasma = experiment: Anti-platelet aggregation in platelet-rich plasma of male male Sprague-Dawley rat assessed as inhibition of ADP-induced platelet aggregation preincubated for 15 mins followed by ADP addition measured up to 10 mins by Born's turbidometric method; format: functional, cell-free
P2Y purinoceptor 1 = P2Y purinoceptor 1 (Rattus norvegicus, UniProt P49651); experiment: Antagonist activity at P2Y1 receptor in platelet-rich plasma of rat assessed as inhibition of ADP-induced cytosolic Ca2+ level pretreated for 5 mins followed by ADP addition by FLUO-4 AM dye based analysis; format: functional, cell-free
Chain of P2Y purinoceptor 1 (P49651 whole entry): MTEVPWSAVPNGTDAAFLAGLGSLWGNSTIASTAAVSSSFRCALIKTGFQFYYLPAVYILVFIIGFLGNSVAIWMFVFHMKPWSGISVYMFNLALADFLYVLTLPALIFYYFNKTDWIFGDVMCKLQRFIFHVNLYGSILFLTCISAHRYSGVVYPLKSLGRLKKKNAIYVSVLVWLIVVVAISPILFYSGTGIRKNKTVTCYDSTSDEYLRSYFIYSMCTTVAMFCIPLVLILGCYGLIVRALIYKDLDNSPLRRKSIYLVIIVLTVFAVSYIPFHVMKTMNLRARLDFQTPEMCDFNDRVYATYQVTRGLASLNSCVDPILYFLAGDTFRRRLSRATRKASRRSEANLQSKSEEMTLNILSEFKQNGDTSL

[2] = biological target: P2Y purinoceptor 1 (Rattus norvegicus) (UniProt P49651); experiment: Induction of thermal stabilization of P2Y1 receptor in rat platelet-rich plasma at 10 uM incubated for 30 mins followed by heat exposure at 48 to 62 degreeC for 10 mins by CETSA; format: cell-free; settings: time 40.0 min
Chain of P2Y purinoceptor 1 (Rattus norvegicus) (P49651 whole entry): as above

[3] = Metabolic stability in rat liver microsomes assessed as parent compound remaining at 1 uM measured after 3 hrs in presence of NADPH by LC-MS/MS analysis; format: ADME, Microsome; settings: read-out: Stability
CYP1A2 = biological target: T1, CYP1A2 (Homo sapiens, UniProt P05177); experiment: Inhibition of CYP1A2 in human liver microsomes using phenacetin as substrate at 10 uM preincubated for 5 min followed by NADPH addition measured after 120 mins by LC-MS/MS analysis relative to control; format: ADME, Microsome; settings: probe phenacetin, time 125 min
T1 sequence (P05177 whole entry): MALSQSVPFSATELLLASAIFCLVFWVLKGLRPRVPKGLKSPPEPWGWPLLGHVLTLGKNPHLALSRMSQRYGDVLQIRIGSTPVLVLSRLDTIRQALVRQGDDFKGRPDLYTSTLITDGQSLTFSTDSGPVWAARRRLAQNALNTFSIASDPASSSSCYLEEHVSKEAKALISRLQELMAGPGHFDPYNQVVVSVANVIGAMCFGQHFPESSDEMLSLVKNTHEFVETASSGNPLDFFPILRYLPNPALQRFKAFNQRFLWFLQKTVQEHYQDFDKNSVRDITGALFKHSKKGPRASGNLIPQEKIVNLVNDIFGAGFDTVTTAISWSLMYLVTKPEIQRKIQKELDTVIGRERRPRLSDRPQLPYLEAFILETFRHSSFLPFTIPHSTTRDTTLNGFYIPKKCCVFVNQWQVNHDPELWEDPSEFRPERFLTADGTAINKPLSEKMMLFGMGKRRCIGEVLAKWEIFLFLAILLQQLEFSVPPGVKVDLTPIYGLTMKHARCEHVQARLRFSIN

CYP2C9 = CYP2C9 (Homo sapiens, UniProt P11712); experiment: Inhibition of CYP2C9 in human liver microsomes using tolbutamide as substrate at 10 uM preincubated for 5 min followed by NADPH addition measured after 120 mins by LC-MS/MS analysis relative to control; format: ADME, Microsome; settings: probe tolbutamide, time 125 min
Chain of CYP2C9 (P11712 whole entry): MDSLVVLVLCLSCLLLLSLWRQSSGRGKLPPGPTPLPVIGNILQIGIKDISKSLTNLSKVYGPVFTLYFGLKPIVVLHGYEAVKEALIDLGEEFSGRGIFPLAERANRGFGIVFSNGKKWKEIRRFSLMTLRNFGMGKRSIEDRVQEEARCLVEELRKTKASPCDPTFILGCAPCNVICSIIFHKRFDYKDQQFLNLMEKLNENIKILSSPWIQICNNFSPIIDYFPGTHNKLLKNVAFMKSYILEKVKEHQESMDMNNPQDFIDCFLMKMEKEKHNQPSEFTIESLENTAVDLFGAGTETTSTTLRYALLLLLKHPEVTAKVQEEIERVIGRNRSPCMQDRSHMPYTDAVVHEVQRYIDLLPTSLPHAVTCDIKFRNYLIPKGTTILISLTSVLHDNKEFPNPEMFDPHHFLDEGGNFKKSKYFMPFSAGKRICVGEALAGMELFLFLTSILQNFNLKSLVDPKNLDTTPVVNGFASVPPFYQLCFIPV

CYP2E1 = CYP2E1 (Homo sapiens, UniProt P05181); experiment: Inhibition of CYP2E1 in human liver microsomes using chlorzoxazone as substrate at 10 uM preincubated for 5 min followed by NADPH addition measured after 120 mins by LC-MS/MS analysis relative to control; format: ADME, Microsome; settings: probe chlorzoxazone, time 125 min
Chain of CYP2E1 (P05181 whole entry): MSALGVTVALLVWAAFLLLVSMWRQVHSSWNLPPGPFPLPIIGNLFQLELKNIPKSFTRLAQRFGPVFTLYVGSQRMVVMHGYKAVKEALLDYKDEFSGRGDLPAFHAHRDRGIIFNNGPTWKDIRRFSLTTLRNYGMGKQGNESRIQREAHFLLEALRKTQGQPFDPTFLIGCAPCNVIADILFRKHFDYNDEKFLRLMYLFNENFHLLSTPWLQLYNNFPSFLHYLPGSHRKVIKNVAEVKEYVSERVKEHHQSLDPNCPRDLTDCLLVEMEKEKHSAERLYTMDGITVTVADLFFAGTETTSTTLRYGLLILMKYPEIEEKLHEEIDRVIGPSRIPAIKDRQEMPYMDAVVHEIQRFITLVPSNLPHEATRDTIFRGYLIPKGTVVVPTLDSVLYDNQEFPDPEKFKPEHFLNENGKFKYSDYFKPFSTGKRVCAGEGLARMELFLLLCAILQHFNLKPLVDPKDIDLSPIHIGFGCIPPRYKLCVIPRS

CYP3A4 = CYP3A4 (Homo sapiens, UniProt P08684); experiment: Inhibition of CYP3A4 in human liver microsomes using nifedipine as substrate at 10 uM preincubated for 5 min followed by NADPH addition measured after 120 mins by LC-MS/MS analysis relative to control; format: ADME, Microsome; settings: probe nifedipine, time 125 min
Chain of CYP3A4 (P08684 whole entry): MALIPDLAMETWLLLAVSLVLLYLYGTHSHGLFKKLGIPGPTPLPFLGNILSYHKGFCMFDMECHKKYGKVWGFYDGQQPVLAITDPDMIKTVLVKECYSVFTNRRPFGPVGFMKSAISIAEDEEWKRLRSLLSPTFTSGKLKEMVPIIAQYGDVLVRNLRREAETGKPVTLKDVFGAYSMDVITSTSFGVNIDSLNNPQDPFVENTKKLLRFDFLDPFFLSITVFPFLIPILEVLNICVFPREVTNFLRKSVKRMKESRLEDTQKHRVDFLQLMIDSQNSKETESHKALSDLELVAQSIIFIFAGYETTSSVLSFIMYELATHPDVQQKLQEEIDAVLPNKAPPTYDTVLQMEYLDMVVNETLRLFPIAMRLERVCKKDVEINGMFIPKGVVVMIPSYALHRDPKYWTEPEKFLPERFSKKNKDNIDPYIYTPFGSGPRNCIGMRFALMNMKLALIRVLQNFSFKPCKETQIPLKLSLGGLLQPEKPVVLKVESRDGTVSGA

[4] = Protein binding in rat brain homogenate at 10 uM incubated for 12 hrs by equilibrium dialysis method; format: ADME, tissue-based; settings: read-out: PB (converted)
[5] = AUC (0 to infinity) male Sprague-Dawley rat at 10 mg/kg, po measured up to 24 hrs by LC-MS/MS analysis; format: ADME, organism-based; settings: in vivo
[6] = Cmax male Sprague-Dawley rat at 10 mg/kg, iv measured up to 24 hrs by LC-MS/MS analysis; format: ADME, organism-based; settings: in vivo
[7] = AUC (0 to infinity) male Sprague-Dawley rat at 10 mg/kg, iv measured up to 24 hrs by LC-MS/MS analysis; format: ADME, organism-based; settings: in vivo
[8] = MRT (0 to infinity) male Sprague-Dawley rat at 10 mg/kg, iv measured up to 24 hrs by LC-MS/MS analysis; format: ADME, organism-based; settings: in vivo
[9] = Apparent volume of distribution male Sprague-Dawley rat at 10 mg/kg, iv measured up to 24 hrs by LC-MS/MS analysis; format: ADME, organism-based; settings: in vivo, read-out: Vz
[10] = Clearance male Sprague-Dawley rat at 10 mg/kg, iv measured up to 24 hrs by LC-MS/MS analysis; format: ADME, organism-based; settings: in vivo
[11] = AUC in brain of male Sprague-Dawley rat at 10 mg/kg, iv measured for 0.083 to 24 hrs by LC-MS/MS analysis; format: ADME, organism-based; settings: in vivo, time 0.083-24 hrs
[12] = Ratio of AUC in brain to plasma of male Sprague-Dawley rat at 10 mg/kg, iv measured for 0.083 to 24 hrs by LC-MS/MS analysis; format: ADME, organism-based; settings: brain and plasma, time 0.083-24 hrs, read-out: Ratio AUC
Rattus norvegicus [13] = experiment: Anti-platelet aggregation in Sprague-Dawley rat assessed as inhibition of ADP-induced platelet aggregation at 10 mg/kg, po measured for 15 mins in presence of 10 uM ADP by cell counter analysis relative to control; format: functional; settings: 0.25 h
Rattus norvegicus [14] = experiment: Anti-platelet aggregation in Sprague-Dawley rat assessed as reduction in ADP-induced bleeding loss at 10 mg/kg, po measured for 15 mins in presence of 10 uM ADP; format: functional, organism-based
Rattus norvegicus [15] = experiment: Neuroprotective activity in MCAO-induced brain damage Sprague-Dawley rat model assessed as reduction in brain water content at 2.5 to 10 mg/kg, iv administered immediately after arterial occlusion measured after 24 hrs; format: functional, organism-based; settings: dose 2.5-10 mg/kg
Rattus norvegicus [16] = experiment: Neuroprotective activity in MCAO-induced brain damage Sprague-Dawley rat model assessed as reduction in neurological damage administered intravenously immediately after arterial occlusion measured after 24 hrs by Longa's method; format: functional, organism-based; settings: dose 2.5-10 mg/kg, route iv
Rattus norvegicus [17] = experiment: Neuroprotective activity in MCAO-induced brain damage Sprague-Dawley rat model assessed as reduction in neurological deficit scores at 10 mg/kg, iv administered immediately after arterial occlusion measured after 24 hrs by Longa's method; format: functional, organism-based
Rattus norvegicus [18] = experiment: Neuroprotective activity in MCAO-induced brain damage Sprague-Dawley rat model assessed as plasma GSH-px level at 2.5 to 10 mg/kg, iv administered immediately after arterial occlusion measured after 24 hrs; format: functional; settings: dose 2.5-10 mg/kg
Rattus norvegicus [19] = experiment: Neuroprotective activity in MCAO-induced brain damage Sprague-Dawley rat model assessed as clear nucleoli with uniform staining at 2.5 to 10 mg/kg, iv administered immediately after arterial occlusion measured after 24 hrs by H and E staining based analysis; format: functional, organism-based; settings: dose 2.5-10 mg/kg

In the case of `N#Cc1cccc(Oc2nc(-c3cccc(C#N)c3)ncc2C(=O)O)c1`, the Activity [1] is reported as 6.15%, the Activity (HT-22) is reported as “Active” and the IC50 (Plasma) is reported as 2810 nM. The IC50 (P2Y purinoceptor 1) was 2460 nM, the Activity [2] was “Active” and the remaining at 3 h, 1 µM [3] was 71.5%. For the same compound, the inhibition at 2 h, 10 µM (CYP1A2) was 6.5%, the inhibition at 2 h, 10 µM (CYP2C9) was 26.3% and the inhibition at 2 h, 10 µM (CYP2E1) was 36.4%. It also gave an inhibition at 2 h, 10 µM (CYP3A4) of 51.7%, a fraction unbound at 12 h, 10 µM [4] of 0.046 and an AUC ([5]; po, 10 mg/kg, 24 h) of 986 ng·h/mL. For the same compound, the Cmax [6] was 48200 ng/mL, the AUC(0-inf) [7] was 23800 ng·h/mL and the MRT inf [8] was 27.2 min. It also gave a Vd [9] of 0.404 L/kg, a clearance [10] of 7 mL/min/kg and an AUC [11] of 18.55 µg·h/g. For the same compound, the Kp [12] was 0.25, the inhibition in vivo at 10 mg/kg (Rattus norvegicus [13]) was 37.2% and the Activity (Rattus norvegicus [14]) was “Moderate_effect; Moderate Bleeding Loss Was Observed; Potency Was More Than Bptu And Ticagrelor”. For the same compound, the Activity (Rattus norvegicus [15]) was “Active; Water Content Did Not Return To Blank Level; At 10 Mg/Kg, Compound Showed Comparable Effect To Bptu, Edaravone, Hnw001”, the Activity (Rattus norvegicus [16]) was “Dose-dependent-effect; Outperformed Edaravone And Hnw001 At 10 Mg/Kg” and the Activity (Rattus norvegicus [17]) was “Active; Activity Was Less Than Bptu”. The Activity (Rattus norvegicus [18]) was 591.5 U/ml and the Activity (Rattus norvegicus [19]) was “Active”.
In the case of `N#Cc1cccc(-c2nc(C(F)F)c(C(=O)O)n2OCc2csc(N)n2)c1`, the Activity [1] is reported as 4.29%, the Activity (HT-22) is reported as “Active” and the IC50 (Plasma) is reported as 2520 nM. For the same compound, the IC50 (P2Y purinoceptor 1) was 2200 nM, the Activity [2] was “Active” and the remaining at 3 h, 1 µM [3] was 99.4%. The inhibition at 2 h, 10 µM (CYP1A2) was 9%, the inhibition at 2 h, 10 µM (CYP2C9) was 9.7% and the inhibition at 2 h, 10 µM (CYP2E1) was 50.2%. It also gave an inhibition at 2 h, 10 µM (CYP3A4) of 55.7%, a fraction unbound at 12 h, 10 µM [4] of 0.092 and an AUC(0-inf) ([5]; male, Sprague-Dawley) of 36 ng·h/mL. For the same compound, the Cmax [6] was 44300 ng/mL, the AUC(0-inf) [7] was 11400 ng·h/mL and the MRT inf [8] was 7.5 min. It also gave a Vd [9] of 0.338 L/kg, a clearance [10] of 14.6 mL/min/kg and an AUC [11] of 1.02 µg·h/g. For the same compound, the Kp [12] was 0.073, the inhibition in vivo at 10 mg/kg (Rattus norvegicus [13]) was 38.8% and the Activity (Rattus norvegicus [14]) was “Active; No Bleeding Loss Was Observed”. For the same compound, the Activity (Rattus norvegicus [15]) was “Active; Water Content Did Not Return To Blank Level”, the Activity (Rattus norvegicus [16]) was “Dose-dependent-effect; Outperformed Edaravone And Hnw001 At 10 Mg/Kg” and the Activity (Rattus norvegicus [17]) was “Active; Activity Was Less Than Bptu”. For the same compound, the Activity (Rattus norvegicus [18]) was 645.4 U/ml and the Activity (Rattus norvegicus [19]) was “Active”.
